Drawing on PubChem BioAssay AID1845198 (Molecular Pharmacology Branch, DTP, NCI, 2023), this text covers viability, T/C and IC50 for four compounds.

Where “and” joins values, the source holds several entries; their conditions need not be identical. Equal values may be shown once.

This assay has as its system 425362-245-T-J1 tumor spheroids, viability % test/control. Description: Anticancer human tumor 425362-245-T-J1 patient-derived melanoma cell line growth inhibition. The note with it: spheroids with HUVEC and MSC; for viability, T/C: stronger effect = lower value. From the text:
Multicellular complex tumor spheroid response to DNA repair inhibitors in combination with DNA-damaging drugs
This study explores the anticancer activities of DNA-damaging drugs and inhibitors of DNA damage repair, both as single agents and in combinations. Complex tumor spheroids comprised of malignant cells, endothelial cells and mesenchymal stem cells served as an in vitro model for human solid tumors. This model system incorporates physiologically relevant features and patient-derived or established malignant cell lines with clinically relevant genetic alterations from many tumor types. Twenty-six patient-derived or established malignant cell lines were evaluated representing sarcoma, melanoma, small cell lung cancer (SCLC), non-small cell lung cancer (NSCLC), as well as bladder, ovarian and pancreatic cancers. The concentration ranges selected for each drug and investigational agent were based upon clinically achievable concentrations if the clinical Cmax of the agent was known.
Compounds. The drugs and compounds olaparib (NSC753686), talazoparib (NSC767125), berzosertib (NSC777718), elimusertib (NSC800525), nedisertib (NSC802822), VX-984 (NSC792969), AZD-1390 (NSC803789), temozolomide (NSC362856), topotecan (NSC609699), trabectedin (NSC813783), staurosporine (NSC755774), and gemcitabine (NSC613327) were obtained from the National Cancer Institute (NCI) Developmental Therapeutics Program Chemical Repository. The FDA-approved anticancer drug set is available from the Developmental Therapeutics Program at https://dtp.cancer.gov/organization/dscb/obtaining/available_plates.htm. […] The stock solutions were prepared in dimethyl sulfoxide (DMSO, Sigma-Aldrich, St. Louis, MO, cat. D2650) at 400-fold the tested concentration and stored at -70 degrees C. Prior to their use, the stock solutions were diluted in fresh medium and the final DMSO concentration in the assay was 0.25% (v/v). All drugs and investigational agents were tested over a range starting from a high concentration at or near the clinical Cmax and decreasing in half-log increments. If the clinical Cmax for an agent had not been determined, the highest concentration tested was 10 microM.
Cell Lines. The patient-derived cancer cell (PDC) lines: 156681-154-R-J1-PDC, 283228-195-R-J1-PDC, 287954-098-R-J1-PDC, 292921-168-R-J2-PDC, 349418-098-R-PDC, 425362-245-T-J1-PDC, 556581-035-R-J1-PDC, and BL0293-F563-PDC were received from the NCI Patient-Derived Models Repository (PDMR, https://pdmr.cancer.gov). The established cell lines HS-SY-2 (RRID:CVCL_8719), MPNST, and SYO-1 (RRID:CVCL_7146) were obtained from the Sloan Kettering Institute. The alveolar soft parts sarcoma cell line ASPS-1 (RRID:CVCL_S738) was established at the NCI and grown from internal seed stocks. The following established cell lines were purchased from the American Type Culture Collection (ATCC, Manassas, VA): G-401 (ATCC, cat. CRL-1441, RRID:CVCL_0270), SW982 (ATCC, cat. HTB-93, RRID:CVCL_1734), VA-ES-BJ (ATCC, cat. CRL-2138, RRID:CVCL_1785), NCI-H719 (ATCC, cat. CRL-5837, RRID:CVCL_1582), NCI-H196 (ATCC, cat. CRL-5823, RRID:CVCL_1509), NCI-H841 (ATCC, cat. CRL-5845, RRID:CVCL_1595), NCI-H1618 (ATCC, cat. CRL-5879, RRID:CVCL_1480), NCI-H1876 (ATCC, cat. CRL-5902, RRID:CVCL_1503), DMS 114 (ATCC, cat. CRL-2066; RRID:CVCL_1174), NCI-H211 (ATCC, cat. CRL-5824; RRID:CVCL_1529), and SW 1271 (ATCC, cat. CRL-2177, RRID:CVCL_1716). The small cell lung cancer cell line COR-L88 was purchased from Sigma-Aldrich (cat. 92031917-1VL, RRID:CVCL_1141). The non-small cell lung cancer cell lines NCI-H226 (RRID:CVCL_1544) and NCI-H322M (RRID:CVCL_1557) were established at the NCI and grown from internal seed stocks. Pooled donor human umbilical vein endothelial cells (HUVEC, Lonza, cat. CC-2519) and human mesenchymal stem cells (hMSC, Lonza, cat. PT-2501) were purchased from Lonza (Walkersville, MD).
Cell Culture. All cells were maintained in an incubator at 37 degrees C and 5% CO2 with 95% humidity. […]
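Also: spheroids exposed to agents for 7 days.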
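For viability, T/C in this document: 100% = DMSO vehicle control viability.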

In the case of `COc1ccc([C@@H](O)c2cc(-c3ncnc4cc(N5CCOCC5)ccc34)c(F)cc2Cl)nn1`, the viability, T/C was 101% and 96.8% and 105% (compound 0.0316 µM); 92.6% and 110% and 104% (compound 0.1 µM); 90.7% and 98.8% and 92.3% (compound 0.316 µM); 65.5% and 76.1% and 72.6% (compound 1 µM); 38% and 44.5% and 42.9% (compound 3.16 µM); 18.8% and 22.8% and 19.7% (compound 10 µM). In addition, the IC50 (curve of compound) is 1930 nM and 2520 nM and 2400 nM.

Consider `Cn1nnc2c(C(N)=O)ncn2c1=O`, for which the viability, T/C runs as follows: (compound 3.16 µM) 106% [middle of 10 runs]; (compound 31.6 µM) 108% [middle of 10 runs]; (compound 100 µM) 92.1% [middle of 10 runs]. Also, the IC50 (compound alone, run of 10/17/2019) was more than 100000 nM.

`O=C(c1cc(Cc2n[nH]c(=O)c3ccccc23)ccc1F)N1CCN(C(=O)C2CC2)CC1`: the viability, T/C (compound 0.0949 µM) was 92.6% and 110% and 97.2%; the viability, T/C (compound 0.3 µM) was 82.7% and 97.3% and 92.5%; the viability, T/C (compound 0.949 µM) was 73.7% and 88.9% and 75.7%; the viability, T/C (compound 3 µM) was 41.4% and 60.6% and 45.6%; the viability, T/C (compound 9.49 µM) is 12% and 18.8% and 18.9%; the viability, T/C (compound 30 µM) is 7.13% and 11.4% and 9.39%. In addition, the half-inhibitory concentration (IC50) (curve of compound) is 2140 nM and 3840 nM and 2500 nM.

For the compound `O=C(c1cc(Cc2n[nH]c(=O)c3ccccc23)ccc1F)N1CCN(C(=O)C2CC2)CC1` + CC[C@@]1(O)C(=O)OCc2c1cc1n(c2=O)Cc2cc3c(CN(C)C)c(O)ccc3nc2-1, the IC50 reads like this: (curve of first compound, second compound 0.003 µM) 3170 nM; (curve of first compound, second compound 0.00949 µM) 650 nM; (curve of first compound, second compound 0.03 µM) less than 94.9 nM; (curve of first compound, second compound 0.0949 µM) less than 94.9 nM; (curve of first compound, second compound 0.3 µM) less than 94.9 nM. Further, the viability, T/C reads like this: (second compound 0.003 µM, first compound 0.0949 µM) 87%; (second compound 0.003 µM, first compound 0.3 µM) 84.8%; (second compound 0.003 µM, first compound 0.949 µM) 80.6%; (second compound 0.003 µM, first compound 3 µM) 52.4%; (second compound 0.003 µM, first compound 9.49 µM) 7.82%; (second compound 0.003 µM, first compound 30 µM) 9.12%. In addition, the viability, T/C is 71.3% (second compound 0.00949 µM, first compound 0.0949 µM); 55% (second compound 0.00949 µM, first compound 0.3 µM); 46.6% (second compound 0.00949 µM, first compound 0.949 µM); 34.8% (second compound 0.00949 µM, first compound 3 µM); 9.52% (second compound 0.00949 µM, first compound 9.49 µM); 8.51% (second compound 0.00949 µM, first compound 30 µM). The viability, T/C (second compound 0.03 µM, first compound 0.0949 µM) was 7.79%; the viability, T/C (second compound 0.03 µM, first compound 0.3 µM) was 10.1%; the viability, T/C (second compound 0.03 µM, first compound 0.949 µM) was 8.82%; the viability, T/C (second compound 0.03 µM, first compound 3 µM) was 6.98%; the viability, T/C (second compound 0.03 µM, first compound 9.49 µM) was 6.48%; the viability, T/C (second compound 0.03 µM, first compound 30 µM) was 5.12%. The viability, T/C by setting is: (second compound 0.0949 µM, first compound 0.0949 µM) 4.29%; (second compound 0.0949 µM, first compound 0.3 µM) 4.4%; (second compound 0.0949 µM, first compound 0.949 µM) 5.46%; (second compound 0.0949 µM, first compound 3 µM) 4.39%; (second compound 0.0949 µM, first compound 9.49 µM) 3.36%; (second compound 0.0949 µM, first compound 30 µM) 3.93%. The viability, T/C was 2.55% (second compound 0.3 µM, first compound 0.0949 µM); 1.67% (second compound 0.3 µM, first compound 0.3 µM); 1.76% (second compound 0.3 µM, first compound 0.949 µM); 1.64% (second compound 0.3 µM, first compound 3 µM); 1.57% (second compound 0.3 µM, first compound 9.49 µM); 1.68% (second compound 0.3 µM, first compound 30 µM).

By viability, T/C is commonly meant the result in the treated group divided by that in the control group, in per cent. As a reminder, the IC50 is the point on the concentration scale where inhibition reaches its midpoint.
